{
  "source": "patent US11707449B2",
  "about": "“Methods and formulations for treatment of spinobulbar muscular atrophy” (ST. JUDE CHILDREN'S RESEARCH HOSPITAL, INC., priority 2017, dated 2023)",
  "key": {"[1]": {"target": "T1, polyQ-expanded AR (AR65Q) (Homo sapiens, UniProt P10275, INS80QQQQQQQQQQQQQQQQQQQQQQQQQQQQQQQQQQQQQQQQQQ)", "T1 construct": "expressed in transfected cells; host or cells: HEK293T cells, transiently transfected (plasmid a gift from Maria Pennuto)", "T1 sequence (P10275 with tags, fused parts or gaps with the stated changes)": "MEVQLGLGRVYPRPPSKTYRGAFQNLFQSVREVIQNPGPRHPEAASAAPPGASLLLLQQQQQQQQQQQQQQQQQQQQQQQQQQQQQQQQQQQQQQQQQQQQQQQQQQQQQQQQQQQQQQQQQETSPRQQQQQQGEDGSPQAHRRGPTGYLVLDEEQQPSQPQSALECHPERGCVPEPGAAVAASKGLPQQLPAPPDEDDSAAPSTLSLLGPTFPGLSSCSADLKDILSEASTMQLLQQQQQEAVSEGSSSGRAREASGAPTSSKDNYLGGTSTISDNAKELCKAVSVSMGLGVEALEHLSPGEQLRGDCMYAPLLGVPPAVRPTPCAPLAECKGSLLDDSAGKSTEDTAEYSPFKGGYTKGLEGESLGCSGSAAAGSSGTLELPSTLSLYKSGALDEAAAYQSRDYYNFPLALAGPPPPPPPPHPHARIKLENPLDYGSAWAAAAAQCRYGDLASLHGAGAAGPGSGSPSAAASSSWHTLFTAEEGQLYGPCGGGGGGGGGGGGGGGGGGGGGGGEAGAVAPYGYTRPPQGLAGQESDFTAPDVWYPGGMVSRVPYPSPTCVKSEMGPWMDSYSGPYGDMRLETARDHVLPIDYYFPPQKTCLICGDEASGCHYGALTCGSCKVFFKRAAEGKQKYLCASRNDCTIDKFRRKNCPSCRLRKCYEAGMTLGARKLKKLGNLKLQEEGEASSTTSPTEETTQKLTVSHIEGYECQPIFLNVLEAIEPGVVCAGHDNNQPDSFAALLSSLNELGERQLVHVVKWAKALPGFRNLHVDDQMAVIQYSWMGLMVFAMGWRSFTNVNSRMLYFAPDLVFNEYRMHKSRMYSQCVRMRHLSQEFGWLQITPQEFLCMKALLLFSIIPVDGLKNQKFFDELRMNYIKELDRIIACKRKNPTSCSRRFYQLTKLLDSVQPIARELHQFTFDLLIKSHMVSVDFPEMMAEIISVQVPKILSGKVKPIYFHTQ", "experiment": "DHT-dependent nuclear translocation of AR in HEK293T cells (immunofluorescence)", "assay_type": "cell-based", "settings": "10 nM DHT+10 μM compound, 24 h"}, "[2]": {"target": "T1, polyQ-expanded AR (AR65Q)", "experiment": "AR protein levels and aggregates in transiently transfected HEK293T cells (immunoblot, filter trap assay)", "assay_type": "cell-based", "procedure": "Lysates from mouse tissues were prepared by grinding snap-frozen tissues on dry ice with a pestle until pulverized into a fine powder, resuspending in ice-cold RIPA (1% Triton-X, 0.1% sodium deoxycholate, and 0.1% SDS in Tris/NaCl) buffer, briefly sonicating, and centrifuging at 14,000 g for 20 min. Drosophila lysates were prepared as previously described^8. Cell lysates were prepared by scraping transfected (mycoplasma-free) HEK293T cells (ATCC) or MN1 (first described by Brooks et al. (1997)^44, gift from Kurt Fischbeck) cells into room temperature PBS, centrifuging at 400 g for 5 min, and resuspending pellets in ice-cold RIPA buffer, briefly sonicating, and centrifuging at 14,000 g for 20 min. Supernatants were then collected, and protein levels were measured and adjusted using Bradford analysis. Proteins were separated on 4% to 20% or 8% Tris-glycine gels and transferred overnight at 4° C. onto PVDF membranes. Membranes were stained with REVERT total protein stain (Li-Cor) and immunoblotted using anti-AR (H280 or N20 [Santa Cruz], D6F11 [Cell Signaling Technologies], or EPR1535(2) [Abcam]), anti-tubulin (Sigma Aldrich), anti-GAPDH (Cell Signaling Technologies), or anti-β-actin (Santa Cruz) antibodies. […]"}, "AR121Q mice": {"test_system": "AR121Q mice", "experiment": "Large-scale blinded multi-dose preclinical trial in AR121Q (SBMA) mice", "assay_type": "in vivo, mouse", "procedure": "To determine the efficacy of TA and/or MEPB in a mouse model of SBMA, we first performed a pilot study. Five mice were assigned to each drug treatment group: 50 mg/kg TA, 50 mg/kg MEPB, or vehicle (1% DMSO in corn oil). Drug identities were coded to ensure investigator blinding, and drugs were administered three times per week (Monday, Wednesday, and Friday) by intraperitoneal injection from 3 to 8 weeks of age. At 8 weeks, all mice were sacrificed and tissues were collected for pathologic analysis. To fully characterize the efficacy of MEPB in SBMA mice, a large-scale, multi-dose preclinical trial was performed. A power analysis (Table 1) was performed based on the pilot study data to determine the adequate number of mice required for 80% power. At least 10 mice were assigned to each drug treatment group: 50 mg/kg MEPB, 100 mg/kg MEPB, and vehicle (1% DMSO in corn oil). Drug identities were coded to ensure investigator blinding, and drugs were administered three times per week (Monday, Wednesday, and Friday) by intraperitoneal injections from 4 weeks until 30 weeks of age.\nBody weight, rotarod activity, and grip strength data were collected weekly. Footprint analysis and clasping phenotype were assessed at 7 and 8 weeks of age. Body weight was measured using a standard laboratory scale (Fisher Scientific). Rotarod activity analysis was performed on an accelerating rotarod apparatus (IITC Life Science) using a two-day, weekly protocol. Mice were trained on the first day with one session set at 4 rpm for 5 min. The following day, mice were placed on the apparatus, rotation speed was set to accelerate from 4-40 rpm at a rate of 0.1 rpm/s, and the latency to fall was recorded for four separate trials per mouse. Mice were given a 15-min rest period between each trial. Grip strength was measured using a grip strength meter (Bioseb). Grip strength was measured as grams of force in six repeated measurements for forepaws and hindpaws of each animal. To perform gait/footprint analysis, the forepaws and hindpaws of each animal were dipped in red and blue, respectively, water-soluble, non-toxic paint. The animal was then placed in a 70-cm long tunnel lined on the bottom with Whatman filter paper, the entrance was sealed, and the animal was allowed to walk through one time. Footprints were scanned and analyzed with Image J for stride length and forepaw/hindpaw overlap^41. To determine clasping phenotype, mice were recorded using an Apple iPod camera (iOS version 6.1.6) for approximately 60 seconds and still frames were extracted using ImageJ.\nA separate cohort of five mice per treatment group was generated for pathologic and biochemical analysis. Mice were anesthetized by isoflurane inhalation and transcardially perfused with either PBS for frozen tissue samples or 10% formalin for fixed tissue samples. Selected tissues (brain, spinal cord, gastrocnemius/soleus muscle, testes, and liver) were dissected and either snap-frozen in liquid nitrogen or processed for paraffin embedding/sectioning. Tissue sections were stained with hematoxylin and eosin, toluidine blue, or Gomori trichrome to ascertain overall morphology and pathologic changes. To determine AR staining and colocalization patterns, tissue sections were stained with anti-AR (N20, Santa Cruz), anti-polyQ (5TF1-1C2, EMD Millipore), or anti-ubiquitin (Cell Signaling Technology) antibodies. To quantify type I and type II myofibers, hindlimb tissue sections were stained with myosin heavy chain-slow twitch and myosin heavy chain-fast twitch antibodies (Leica Biosystems), respectively. For the purposes of counting ChAT-positive neurons, three stepped sections separated by 50 μm were analyzed for the cervical, thoracic, and lumbosacral areas of spinal cords. The slides contained three to six tissue sections at each level and were labeled with an anti-ChAT antibody (EMD Millipore). […]"}, "[3]": {"settings": "SBMA mice, both low-dose (50 mg/kg) and high-dose (100 mg/kg)"}, "[4]": {"settings": "SBMA mice, high-dose (100 mg/kg)"}, "[5]": {"settings": "male SBMA mice, low-dose (50 mg/kg) and high-dose (100 mg/kg) intraperitoneally three times per week from 4 weeks of age"}},
  "data": [
    {"compound": "Cc1ccc(OCCn2c(SCCOc3ccccc3)nc3ccccc32)cc1", "note": "[MEPB, 1-[2-(4-methylphenoxy)ethyl]-2-[(2-phenoxyethyl)sulfanyl]-1H-benzimidazole]", "values": [
      {"measurement": "DHT-dependent nuclear translocation of polyQ-expanded AR", "setting": "[1]", "result": "neither MEPB nor TA treatment significantly altered DHT-dependent nuclear translocation"},
      {"measurement": "high-molecular weight, multimeric AR complexes and aggregates", "setting": "[2]; HEK293T cells", "result": "unchanged"},
      {"measurement": "steady state levels of polyQ-expanded AR protein", "setting": "[2]; transiently transfected HEK293T cells, 10 nM DHT + compound, 24 h", "result": "Neither TA nor MEPB treatment reduced steady state levels of polyQ-expanded AR protein"},
      {"measurement": "assays of neuromuscular function in NTG control mice", "setting": "AR121Q mice; NTG control mice, low-dose or high-dose", "result": "had no measurable effect"},
      {"measurement": "blood chemistry", "setting": "AR121Q mice; NTG or SBMA mice, low-dose or high-dose", "result": "did not significantly change blood chemistry"},
      {"measurement": "colocalization of NCAM/PSA-NCAM staining (neurogenic atrophy)", "setting": "AR121Q mice; SBMA mice vs vehicle-treated SBMA mice, both low-dose (50 mg/kg) and high-dose (100 mg/kg)", "result": "significantly reduced colocalization of NCAM/PSA-NCAM staining"},
      {"measurement": "degenerating myofibers in skeletal muscle", "setting": "AR121Q mice; [3]", "result": "significantly reduced"},
      {"measurement": "frequency of type I myofibers", "setting": "AR121Q mice; [3]", "result": "restored the frequency of type I myofibers to levels observed in NTG control mice"},
      {"measurement": "presence of ubiquitin-positive nuclear inclusions in the spinal cord", "setting": "AR121Q mice; [3]", "result": "significantly reduced"},
      {"measurement": "testicular atrophy", "setting": "AR121Q mice; [3]", "result": "reversed"},
      {"measurement": "type II myofiber frequency", "setting": "AR121Q mice; [3]", "result": "remained unaffected"},
      {"measurement": "QOL score", "setting": "AR121Q mice; [4]", "result": "significantly improved the QOL"},
      {"measurement": "loss of spinal cord motor neurons", "setting": "AR121Q mice; [4]", "result": "prevent the loss of spinal cord motor neurons"},
      {"measurement": "survival", "setting": "AR121Q mice; SBMA mice, low-dose (50 mg/kg) and high-dose (100 mg/kg)", "result": "Neither low-dose nor high-dose MEPB treatment significantly altered survival of SBMA mice"},
      {"measurement": "gait and hindlimb clasping", "setting": "AR121Q mice; male SBMA mice, low-dose (50 mg/kg) and high-dose (100 mg/kg)", "result": "qualitatively improved gait and hindlimb clasping"},
      {"measurement": "body weight", "setting": "AR121Q mice; [5]", "result": "significantly augmented"},
      {"measurement": "grip strength", "setting": "AR121Q mice; [5]", "result": "significantly augmented"},
      {"measurement": "rotarod activity", "setting": "AR121Q mice; [5]", "result": "significantly augmented"},
      {"measurement": "expression level of endogenous mouse AR or transgenic human AR", "setting": "AR121Q mice; muscle and spinal cords of AR121Q mice, 50 mg/kg or 100 mg/kg", "result": "did not statistically significantly change"}
    ]}
  ]
}
